Source: patent US7740835B2, “Anaerobic bacterium as a drug for cancer gene therapy” (Anaeropharma Science Inc., priority 2000, dated 2010)

System: Lewis lung cancer cells
Test: Growth of B. longum in tumor tissues by administering lacturose
Assay type: in vivo, mice
Conditions: B. longum 105-A administered; 1 ml of 20 t lacturose solution intraperitoneally for 8 successive days; analysed on the 9th day
Description: Lacturose (provided by Nikken Chemicals Co., Ltd.) is a synthetic saccharide not occurring in nature, and it is known that lacturose cannot be metabolized by humans, mice and pigs (Biochem. Biophys. Acta, 110, 635 (1965), Pediatrics, 32, 1033 (1963), Gastroenterology, 47, 26 (1964), Die Nahrung, 11, 39 (1967)). On the other hand, B. longum is capable of growing with lacturose as a carbon source.
As a result, the number of B. longum bacteria present of the tumor tissues in the tumor-bearing mouse group given lacturose was 200-times as more as that of the control group not given lacturose.

Compound: OC[C@H]1O[C@@H](O[C@@H]2[C@@H](CO)OC(O)(CO)[C@H]2O)[C@H](O)[C@@H](O)[C@H]1O (stereo partly drawn) [lacturose, 4-0-β-D-galactopyranosyl-D-fructofuranose]
- number of B. longum bacteria in tumor tissues of the group given lacturose relative to the control group not given lacturose: 200 times
